From patent publication US8609161B2, “Conglutin-gamma as medicament and diet supplement” (Ospedale San Raffaele S.R.L., priority 2008, dated 2013)
Entries after “also recorded” stand apart in the source; their conditions may differ.

How the values were obtained:
eIF4E [1] = test: eIF4E protein, western blot of stimulated C2C12 myotubes; type: cell-based, mouse; settings: for eIF4E protein concentration increase: I 100 nM
Experimental: (§1) C2C12 myoblasts were cultured at 37° C. in humidified 5% CO2 atmosphere in a growth medium (GM) containing DMEM supplemented with 20% (v/v) FBS (fetal bovine serum), 1% penicillin-streptomycin and 1% L-glutamine. Cell differentiation was initiated by placing 70% confluent cell cultures in DMEM supplemented with 1% HS (horse serum) and antibiotics (DM). To prepare myotube cultures, myoblasts were cultured in DM for 72 hours. Cells used as control (C) were switched back to GM for the duration of the experiment. Other three groups of cells were replaced in GM with the selective addition respectively of insulin (I; 100 nM), conglutin-γ (Cg; 0.5 mg/ml) and metformin (Mf; 400 μM). For each experimental condition cells were lysed at 0, 5, 10, 20 and 30 minutes after the stimuli addition.
(§2) C2C12 myofibers were homogenized in lysis buffer (50 mM Tris/HCl, pH 7.4, 150 mM NaCl, 1% Triton X-100, 1 mM sodium orthovanadate (Na3VO4), 1 mM EDTA, 1 mM PMSF, 1 mg/ml aprotinin, 1 mg/ml leupeptin, 1 mg/ml pepstatin) and shaked for 1 h at 4° C. Detergent-insoluble material was removed from the cell suspension by centrifugation at 12,000×g for 30 min. Aliquots of 30 µg supernatant proteins from the different samples were resolved by 8% (IRS1, MHC, myogenin and p-CBL), 10% (PI3K p85, AKT1, p-p70 S6K and PKC), 12% (eIF-4E, p-ERK1, p-ERK2, caveolin-3 and flottilin-2) and 15% (PHAS1) SDS-PAGE (Sodium Dodecyl Sulfate—PolyAcrylamide Gel Electrophoresis). Electrophoresed proteins were transferred onto nitrocellulose membranes using a Bio-Rad Mini Trans-Blot system. […]
(§3) The membrane was stripped and re-probed with an antibody to actin or tubulin to confirm equal protein loading per sample. Quantitative measurement of immunoreactive bands was performed by densitometric analysis using the Scion image software (Scion corporation, Frederick, Md., USA).

Akt-1 = Akt-1 protein, western blot of stimulated C2C12 myotubes; type: cell-based, mouse
Experimental: as §1, §2, §3

ERK2 = test: ERK-2 phosphorylation, western blot of stimulated C2C12 myotubes; type: cell-based, mouse
Experimental: as §1, §2, §3

PKC = PKC protein, western blot of stimulated C2C12 myotubes; type: cell-based, mouse
Experimental: as §1
(§4) C2C12 myofibers were homogenized in lysis buffer (50 mM Tris/HCl, pH 7.4, 150 mM NaCl, 1% Triton X-100, 1 mM sodium orthovanadate (Na3VO4), 1 mM EDTA, 1 mM PMSF, 1 mg/ml aprotinin, 1 mg/ml leupeptin, 1 mg/ml pepstatin) and shaked for 1 h at 4° C. […]
as §3

caveolin-3 = caveolin-3 protein, western blot of stimulated C2C12 myotubes; type: cell-based, mouse; settings: 30 min / toward the end of the experiment; I 100 nM, Mf 400 μM
Experimental: as §1, §4, §3

MHC = MHC gene expression (protein content), western blot of stimulated C2C12 myotubes; type: cell-based, mouse; settings: Cg 0.5 mg/ml
Experimental: as §1, §4, §3

ERK1 = test: ERK-1 phosphorylation, western blot of stimulated C2C12 myotubes; type: cell-based, mouse
Experimental: as §1, §4, §3

p70S6K [2] = test: p70S6K phosphorylation, western blot of stimulated C2C12 myotubes; type: cell-based, mouse; settings: Mf 400 μM; for p70S6K phosphorylation: I 100 nM, Cg 0.5 mg/ml
Experimental: as §1
C2C12 myofibers were homogenized in lysis buffer (50 mM Tris/HCl, pH 7.4, 150 mM NaCl, 1% Triton X-100, 1 mM sodium orthovanadate (Na3VO4), 1 mM EDTA, 1 mM PMSF, 1 mg/ml aprotinin, 1 mg/ml leupeptin, 1 mg/ml pepstatin) and shaked for 1 h at 4° C. Detergent-insoluble material was removed from the cell suspension by centrifugation at 12,000×g for 30 min. Aliquots of 30 µg supernatant proteins from the different samples were resolved by 8% (IRS1, MHC, myogenin and p-CBL), 10% (PI3K p85, AKT1, p-p70 S6K and PKC), 12% (eIF-4E, p-ERK1, p-ERK2, caveolin-3 and flottilin-2) and 15% (PHAS1) SDS-PAGE (Sodium Dodecyl Sulfate—PolyAcrylamide Gel Electrophoresis). Electrophoresed proteins were transferred onto nitrocellulose membranes using a Bio-Rad Mini Trans-Blot system. The blots were blocked with 50 mg/ml non-fat dry milk in 20 mM Tris/HCl, pH 7.4, 100 mM NaCl for 1 h at room temperature and then incubated overnight at 4° C. with respective primary antibodies in 10 mg/ml non-fat dry milk, 20 mM TRIS/HCl pH 7.4 and 100 mM NaCl and 0.3% Tween 20. After several washes the membranes were incubated with species-specific secondary antibodies. Immunoreactive bands were visualized by an enhanced chemiluminescence method (Amersham Pharmacia Biotech, Piscataway, N.J., USA).
as §3

PHAS-1 = PHAS-1 α and β bands, western blot of stimulated C2C12 myotubes; type: cell-based, mouse; settings: I 100 nM, Cg 0.5 mg/ml, Mf 400 μM
Experimental: as §1, §4, §3

flottilin-2 = flottilin-2 protein, western blot of stimulated C2C12 myotubes; type: cell-based, mouse
Experimental: as §1, §4, §3

myogenin = myogenin content, western blot of stimulated C2C12 myotubes; type: cell-based, mouse; settings: I 100 nM, Cg 0.5 mg/ml, Mf 400 μM
Experimental: as §1, §4, §3

C2C12 myoblasts = test: Immunofluorescence of MHC-positive myotubes (differentiation, hypertrophy); type: cell-based, mouse; settings: vs un-stimulated differentiated muscle cells; I 100 nM, Cg 0.5 mg/ml, Mf 400 μM
Experimental: To prepare myotube cultures, myoblasts were cultured in DM for 72 hours. Cells used as control (C) were switched back to GM for the duration of the experiment. […] For each experimental condition cells were lysed at 0, 5, 10, 20 and 30 minutes after the stimuli addition. For immunofluorescence analysis C2C12 myoblasts differentiated as above were stimulated with insulin, conglutin-γ and metformin for 30 minutes. In differentiated cells immunostained with anti-MHC the DAPI stained nuclei per myotube, myotubes length and diameter were determined and expressed as average.

IRS-1 = IRS-1 protein content, western blot of stimulated C2C12 myotubes; type: cell-based, mouse; settings: I 100 nM, Cg 0.5 mg/ml, Mf 400 μM; for IRS-1 activation: 30 min
Experimental: as §1, §2, §3

Cbl = Cbl phosphorylation, western blot of stimulated C2C12 myotubes; type: cell-based, mouse; settings: 30 min; I 100 nM
Experimental: as §1, §4, §3

[3] = tested on: insulin receptor beta (IR-beta); test: IR-beta protein content in gastrocnemius muscle at end of IPGTT; type: in vivo, mouse; settings: 120 min, with respect to the basal and saline group; conglutin-gamma 120 mg/kg i.p., insulin 0.5 U/kg i.p.
Experimental: (§5) For this protocol C57B1/6 wild type mice were utilized. Intraperitoneal glucose tolerance test (IPGTT) was performed by injecting glucose (2 g/kg body weight) i.p. in three groups of overnight-fasted mice. Thirty minutes before glucose administration, conglutin-gamma (120 mg/kg b.w.) was injected i.p. in the “Conglutin” group of mice. In the “Insulin” group of mice, insulin (0.5 U/kg b.w.) was administered i.p. at the same time of glucose injection (time 0). Blood glucose levels were determined prior (30 and 0 minutes) to injection and 30, 60, 90, and 120 min after injection. Blood samples were obtained from the tail vein and plasmas used to measure glucose concentration by the glucose reflectometer. At the end of the study gastrocnemius muscle was taken. A group of overnight-fasted mice (basal) was sacrificed before the study and gastrocnemius muscle taken. A group of animals that received saline instead of insulin or conglutin-gamma, was used as control (saline).
(§6) Collected gastrocnemius muscle was frozen in liquid nitrogen immediately after excision and then stored at −80° C. A gram of tissue with 1.5 ml of ice cold RIPA buffer was disrupted and homogenized with a dounce homogenizer, maintaining temperature at 4° C. throughout all procedures, then incubated on ice for 30 minutes. The homogenate was transferred to microcentrifuge tubes, centrifugated at 10,000×g for 10 minutes at 4° C. […]

p85-PI3 kinase = test: PI3K-p85 subunit, western blot of stimulated C2C12 myotubes; type: cell-based, mouse; settings: I 100 nM, Cg 0.5 mg/ml
Experimental: as §1, §4, §3

GSK-3 = GSK-3 in gastrocnemius muscle at end of IPGTT; type: in vivo, mouse; settings: 120 min; conglutin-gamma 120 mg/kg i.p., insulin 0.5 U/kg i.p.
Experimental: as §5, §6

[4] = Intraperitoneal glucose tolerance test (IPGTT), blood glucose; type: in vivo, C57B1/6 wild type mice
Experimental: as §5

eIF4E [5] = test: eIF4E protein in gastrocnemius muscle at end of IPGTT; type: in vivo, mouse; settings: 120 min; conglutin-gamma 120 mg/kg i.p., insulin 0.5 U/kg i.p.
Experimental: as §5, §6

p70S6K [6] = test: p70S6k phosphorylation in gastrocnemius muscle at end of IPGTT; type: in vivo, mouse; settings: 120 min; conglutin-gamma 120 mg/kg i.p., insulin 0.5 U/kg i.p.
Experimental: as §5, §6

ERK1 and ERK2 = ERK1 and ERK2 phosphorylation in gastrocnemius muscle at end of IPGTT; type: in vivo, mouse; settings: 120 min; conglutin-gamma 120 mg/kg i.p., insulin 0.5 U/kg i.p.
Experimental: as §5, §6

AKT1 = AKT1 protein expression in gastrocnemius muscle at end of IPGTT; type: in vivo, mouse; settings: 120 min, with respect to the untreated muscle; conglutin-gamma 120 mg/kg i.p., insulin 0.5 U/kg i.p.
Experimental: as §5, §6

[7] = Mf 400 μM vs insulin and conglutin-γ

Compound: CN(C)C(=N)N=C(N)N [metformin, Metformin]
- eIF4E activation, in words (eIF4E [1]; Mf 400 μM): not able to exert an activation
- Emax (Akt-1; Mus musculus, C2C12, 5 min, 5 min, Mf 400 μM, read-out: Akt-1 protein concentration change (maximal effect)): ~20%
- ERK2 activation, in words (ERK2; [7]): higher activation
- PKC protein concentration stimulation, in words (PKC; [7]): more than the other two stimuli
- caveolin-3 protein concentration increase (caveolin-3): above 70%
- MHC gene expression, in words (MHC; with respect to un-stimulated differentiated muscle cells, Mf 400 μM): unable to produce the same effect; also recorded: not able to induce the same gene expression
- ERK1 activation, in words (ERK1; [7]): higher activation
- p70S6K phosphorylation (p70S6K [2]; 30 min): ~32%
- Emax (p70S6K [2]; Mus musculus, C2C12, 10 min, within 10 min, read-out: p70S6K phosphorylation (maximal effect)): ~46%
- density of PHAS-1 α and β bands in respect to the control (PHAS-1): more increased
- flottilin-2 activation, in words (flottilin-2; Mf 400 μM): did not exert any flottilin-2 activation
- myogenin activation (myogenin): did not exert any effect
- fusion index (C2C12 myoblasts): gradually increase
- myotubes diameter (C2C12 myoblasts): gradually increase
- myotubes length (C2C12 myoblasts): gradually increase
- number of nuclei present in MHC positive myotubes (C2C12 myoblasts): gradually increase
- IRS-1 activation (IRS-1): ~76%

Compound: insulin: primary hormone responsible for proteosynthesis control and glucose homeostasis; comparator stimulus
- Cbl phosphorylation (maximal) (Cbl): ~56%
- eIF4E protein concentration increase (eIF4E [1]; 30 min (end of the experiment), Cg 0.5 mg/ml): ~30%
- eIF4E protein concentration increase (eIF4E [1]; persistent from 5 to 20 min): ~45%
- Akt-1 protein concentration change (Akt-1; 20 min, I 100 nM, Cg 0.5 mg/ml, Mf 400 μM): ~13%
- AKT-1 phosphorylation, in words (Akt-1; any time 5-30 min, I 100 nM, Cg 0.5 mg/ml): modest stimulation above basal at any time
- IR-beta protein content in muscle [3]: trend towards IR-beta protein content increment
- ERK2 activation (ERK2; 10 min, I 100 nM): ~20%
- ERK2 activation (maximum) (ERK2; 30 min, I 100 nM, Cg 0.5 mg/ml): ~28%
- PKC concentration increase (PKC; 20 min, I 100 nM, Cg 0.5 mg/ml): ~32%
- p85-PI3 kinase activation (p85-PI3 kinase; 30 min (end of the experiment)): ~56%
- p85-PI3 kinase activation (p85-PI3 kinase; within 5 min): ~62%
- caveolin-3 protein concentration increase (caveolin-3): ~34%
- GSK-3 phosphorylation in muscle (GSK-3): increased
- MHC expression increase (MHC; with respect to the un-stimulated differentiated muscle cells, I 100 nM): ~600%
- blood glucose concentration at the end of the study ([4]; 120 min after glucose 2 g/kg i.p., conglutin-gamma 120 mg/kg i.p. at -30 min, insulin 0.5 U/kg i.p. at time 0): ~120 mg/dL
- course of blood glucose decrease during IPGTT ([4]; glucose 2 g/kg i.p., conglutin-gamma 120 mg/kg i.p., insulin 0.5 U/kg i.p.): decreased rapidly
- eIF4E activation in muscle (eIF4E [5]): able to increment
- ERK1 activation (peak) (ERK1; 20 min, I 100 nM, Cg 0.5 mg/ml): ~27%
- p70S6K phosphorylation (p70S6K [2]; 30 min): ~94%
- p70S6K phosphorylation (p70S6K [2]; within 5 min): ~40%
- p70S6k phosphorylation in muscle (p70S6K [6]): increased
- density of PHAS-1 α and β bands in respect to the control (PHAS-1): more increased
- flottilin-2 protein concentration increase (peak) (flottilin-2; 10 min, I 100 nM, Cg 0.5 mg/ml): ~60%
- ERKs phosphorylation in muscle (ERK1 and ERK2): able to increment
- AKT1 expression in muscle (AKT1): able to increase AKT1 expression
- myogenin activation (myogenin): overlapping
- fusion index (C2C12 myoblasts): gradually increase
- myotubes diameter (C2C12 myoblasts): gradually increase
- myotubes length (C2C12 myoblasts): gradually increase
- number of nuclei present in MHC positive myotubes (C2C12 myoblasts): gradually increase
- IRS-1 protein content stimulation / activation (IRS-1; 20 min): ~32%
- IRS-1 activation (IRS-1): ~35%
